# Measurements reported in patent publication US20030054332A1, “Markers for evaluating estrogenic activity” (priority 2001, published 2003).
# Tests used:
# [1] = system: VEGF mRNA in VE-ERα cells; assay: VEGF mRNA expression in VE-ERα cells by RNAse protection analysis; assay type: cell-based, human; details: VE-ERα cells treated with estrogen; RNAse protection analysis (FIG. 1, 100 nM)
# Description: Estrogen receptor α (ERα)-enhanced vascular endothelial cells were prepared by infecting primary vascular endothelial cells with a retrovirus expressing human papillomavirus E6/E7, which leads to cellular immortalization. The retrovirus expression vector LXSN16E6E7 contains the immortalizing oncogenes E6 and E7 from human papilloma virus type 16 and a neomycin resistance gene. (Halbert, C. L., Demers, F. W., and Galloway, D. A. 1991. J Virol. 65: 473-478 (1)). This vector was transfected into PA317 cells, an amphotrophic packaging cell line, by calcium phosphate precipitation. Stably clonal lines were established by G418 selection. A negative control line expressing the empty retrovirus LXSN was established. Viruses produced by the clonal lines of PA317 were used to infect second passage primary human aortic endothelial cells obtained from Cell Applications, Inc., San Diego, Calif. Following infection and selection with G418, the LXSN infected cells ceased growth after approximately 7 passages where the LXSN16E6E7 infected cells were growth extended beyond 20 passages.
# The cells expressed the expected endothelial markers. The levels of ERα were increased by infection of the cells with a retrovirus that expresses recombinant ERα (Green, S. et al, Nature 1986 320: 134-137). […]
# [2] = system: VE-ERα cells; assay: Incyte UniGEM estrogen regulated gene profile of VE-ERα cells; assay type: cell-based, human; details: VE-ERα cells treated for 6 hours vs ethanol
# Description: The Incyte UniGEM technology was used to survey a large panel of genes and to establish the estrogen regulated gene profile of the VE-ERα cells. VE-ERα cells were treated for 6 hours with 17-β estradiol or vehicle control (ethanol). Poly (A) RNA was isolated and this RNA was used to synthesize Cy3 or Cy5 labeled cDNA for simultaneous probing of Incyte UniGem V. Reciprocal labeling was done and two UniGems were probed (for one GEM the estradiol probe was labeled with Cy3 and ethanol probe with Cy5 and this labeling was reversed for the second GEM). UniGem V contains approximately 8500 human sequences including both known genes and ESTs. More than 20 genes were identified which were regulated more than 2 fold on both UniGEMs (Table I, indicated as UniGem. The sequence indicated in Table I with RF were identified by RNA fingerprinting, a more stringent version of differential display. RNA fingerprinting is based upon the use of arbitrary primers and primer combinations to carry out PCR amplifications from cDNA populations derived from cells or tissues of interest. The process generates a series of radioactively-labeled fragments which can be resolved by PAGE and visualized by autoradiography. (Mathieu-Daude, et al. Methods Enzymol 1999;303:309; Stone, et al., Nucleic Acids Res 1994 Jul 11;22(13):2612-8.)
# [3] = system: prostacyclin I2 synthase in VE-ERα cells; assay: Estrogen treatment time course, RNase protection analysis of prostacyclin I2 synthase in VE-ERα cells; assay type: cell-based, human; details: at 24 hours
# Description: This step is not necessary with genes identified by the UniGem where an estrogen treatment time course was performed. RNA was isolated and RNase protection analysis was used to determine estrogen responses (FIG. 2). All 20 of the genes examined were confirmed to be regulated to a higher fold modulation at 24 hours than the 6 hours used for the UniGem experiment.
# The genes identified were relevant genes for vascular endothelial cells and in some cases consistent with the known effects of estrogen in the cardiovascular system. […] This enzyme is required for that last step in the synthesis of prostacyclin (PGI2). […] Another relevant gene was natriuretic peptide receptor B (NPR-B) which is the receptor for C-type natriuretic peptide (CNP), an endothelium dependent vasodilator.
# [4] = system: MCF-7 cells; assay: Estrogen regulation of marker genes in MCF-7 cells; assay type: cell-based
# [5] = system: cyclin A1 in ERα-enhanced vascular endothelial cells; assay: Cyclin A1 RNase protection, ERα-enhanced vascular endothelial cells; assay type: cell-based, human; details: for cyclin A1 mRNA (in words): ERα-enhanced cells, 100 nM E2, 1 μM ICI 164384, 10 nM DES
# Description: RNA was prepared using standard methods and RNase protection experiments were performed to evaluate the time course of cyclin A1 induction.
# (§1) In a similar experiment, RNase protection assays were performed using estrogen receptor α- and estrogen receptor β-enhanced vascular endothelial cells. […] The results are presented in FIGS. 4A and 5B, which show the levels of various cyclins in estrogen receptor α- and estrogen receptor β-enhanced cells, respectively. Arrows indicate mRNA for each indicated cyclin. […] Cyclin A1 is the only cyclin in the panel increased by estradiol treatment.
# (§2) Cyclin A1 expression and the effect of estradiol on expression in a number of immortalized and primary cells lines was further evaluated as described above.
# [6] = system: cyclin A1 in ERβ-enhanced vascular endothelial cells; assay: Cyclin A1 RNase protection, ERβ-enhanced vascular endothelial cells; assay type: cell-based, human; details: 100 nM E2, 1 μM ICI 164384, 10 nM DES
# Description: as §1, §2
# [7] = system: cyclin A1 in Vascular endothelial cells; assay: Cyclin A1 expression and induction, vascular endothelial cells; assay type: cell-based; design: key: (+) indicates detectable cyclin A1; (−) indicates no detectable cyclin A1 expression; details: immortalized human cells
# Description: as §2
# [8] = system: cyclin A1 in Primary vascular endothelial cells; assay: Cyclin A1 expression and induction, primary vascular endothelial cells; assay type: cell-based; design: key: (+) indicates detectable cyclin A1; (−) indicates no detectable cyclin A1 expression
# Description: as §2
# [9] = system: cyclin A1 in MCF-7 (mammary cancer cell line); assay: Cyclin A1 expression and induction, MCF-7; assay type: cell-based; design: key: (+) indicates detectable cyclin A1; (−) indicates no detectable cyclin A1 expression
# Description: as §2
# [10] = system: cyclin A1 in Endometrial epithelial cells; assay: Cyclin A1 expression and induction, endometrial epithelial cells; assay type: cell-based; design: key: (+) indicates detectable cyclin A1; (−) indicates no detectable cyclin A1 expression; details: immortalized human cells
# Description: as §2
# [11] = system: cyclin A1 in Osteoblasts; assay: Cyclin A1 expression and induction, osteoblasts; assay type: cell-based; design: key: (+) indicates detectable cyclin A1; (−) indicates no detectable cyclin A1 expression; details: immortalized human cells
# Description: as §2
# [12] = system: cyclin A1 in Vascular smooth muscle cells; assay: Cyclin A1 expression and induction, vascular smooth muscle cells; assay type: cell-based; design: key: (+) indicates detectable cyclin A1; (−) indicates no detectable cyclin A1 expression; details: immortalized human cells
# Description: as §2
# [13] = system: cyclin A1 in Primary vascular smooth muscle cells; assay: Cyclin A1 expression and induction, primary vascular smooth muscle cells; assay type: cell-based; design: key: (+) indicates detectable cyclin A1; (−) indicates no detectable cyclin A1 expression
# Description: as §2
# [14] = system: estrogen-regulated genes in VE-ERα cells; assay: Multigene RNase protection assay (RPA) with VE-ERα cells; assay type: cell-based, human; details: for induction of expression of estrogen-regulated genes / effect on basal gene expression: 5 dose 0.1 nM-1000 nM for 24 hours
# Description: Another preferred assay is an RNase protection assay (RPA), which can be used to examine a panel of genes identified as estrogen-regulated in VE-ERα cells. The RPA is described in Gilman, 1993, In Current Protocols in Molecular Biology, Vol. 1 (Ausubel, F. M., R. Brent, R, E. Kingston, D. D. Moore, J. G. Seidman, J. A. Smith and K. Stuhl, eds.) pp. 4.7.1-4.7.8, John Wiley and Sons, Inc., New York, incorporated herein by reference in its entirety. Within this assay, which may be performed according to standard protocols, multiple probes can be used in a single reaction that requires as little as 1 μg of total RNA, resulting in high information content and a molecule profile for each compound on ERα. regulated gene expression in vascular endothelial cells. The RPA assay is very sensitive and is therefore able to detect low copy messages and distinguish low fold modulations typical of estrogen. This approach has a number of advantages over a reporter assay. The endogenous genes in the multigene assay will contain all endogenous gene regulatory elements and will not be restricted to activation occurring through an ERE element. Since VE-ERα cells are human cells that have been characterized and determined to maintain endothelial specific phenotypic markers and functions, tissue selective ER regulation can be investigated.
# An RNase protection assay (RPA) was used to examine a panel of genes identified as estrogen-regulated in VE-ERα cells.
# (§3) In a further experiment, compounds known to have estrogen-like activity based on ER binding and ERE transactivation (ERE luciferase reporter in Chinese hamster ovary cells expressing transfected ERα) were evaluated. […] In order to confirm that these active compounds were working in an ER dependent manner, VE103-ERα cells were treated with a single dose of compound and increasing doses of ICI 164,384. […] All results are presented as percent of estrogen. PGI2 synthase numbers were based on EC50 from a 5-point dose response like that shown for estrogen in FIG. 5.
# [15] = system: ERE luciferase reporter in Chinese hamster ovary cells expressing transfected ERα; assay: ERE transactivation (ERE luciferase reporter in Chinese hamster ovary cells expressing transfected ERα); assay type: cell-based
# Description: as §3
smiles,measurement,setting,value
C[C@]12CC[C@@H]3c4ccc(O)cc4CC[C@H]3[C@@H]1CC[C@@H]2O [17-β-estradiol],expression of vascular endothelial growth factor (VEGF) mRNA,[1],increased three fold
same,regulation of more than 20 genes on both UniGEMs,[2],more than 2 fold
same,prostacyclin I2 synthase upregulation,[3],4 fold
same,"regulation of ATP sulfurylase/APS kinase, podocalyxin",[4],found to be regulated by estrogen
same,regulation of clusterin,[4],not regulated by estrogen in a similar fashion
same,regulation of prostacyclin I2 synthase and natriuretic peptide receptor B (NPR-B),[4],not regulated by estrogen
same,time to increase of cyclin A1 mRNA,[5]; 100 nM 17-β-estradiol vs 0.1% ethanol,≤ 3 h
same,cyclin A1 mRNA (in words),[5],induction of cyclin A1 mRNA can occur
same,cyclin A1 mRNA (in words),[6],induction of cyclin A1 mRNA can occur
same,"Cyclin A1 expression, Estradiol",[7],+
same,"Cyclin A1 expression, Estradiol",[8],+
same,"Cyclin A1 expression, Estradiol",[9],−
same,"Cyclin A1 expression, Estradiol",[10],+
same,"Cyclin A1 expression, Estradiol",[11],−
same,"Cyclin A1 expression, Estradiol",[12],−
same,"Cyclin A1 expression, Estradiol",[13],−
same,induction of expression of estrogen-regulated genes,[14],induced expression
same,PG I2 synthase,"[14]; VE-ERα Cells, based on EC50 from a 5-point dose response",100% of estrogen
same,ERE transactivation,[15],100% of estrogen
"CC/C(=C(/CC)c1ccc(O)cc1)c1ccc(O)cc1 [DES, diethylstilbestrol]",cyclin A1 mRNA (in words),[5],mimics the estradiol effect
same,cyclin A1 mRNA (in words),[6],mimics the estradiol effect
"CCCCN(C)C(=O)CCCCCCCCCC[C@@H]1Cc2cc(O)ccc2[C@H]2CC[C@]3(C)[C@@H](O)CC[C@H]3[C@H]12 [ICI 164,384]",cyclin A1 mRNA (in words),[5],inhibits this response
same,cyclin A1 mRNA (in words),[6],inhibits this response
same,effect on basal gene expression,[14],lowered basal expression of some genes at higher concentrations
same,induction of expression of estrogen-regulated genes,[14],showed no induction of gene expression
same,inhibition of gene activation by active compounds,"[14]; VE103-ERα cells, single dose of compound and increasing doses of ICI 164,384",able to inhibit competitively the activation of these genes
O=C(c1ccc(OCCN2CCCCC2)cc1)c1c(-c2ccc(O)cc2)sc2cc(O)ccc12 [Raloxifene],effect on basal gene expression,[14],repressing rather than inducing gene expression
same,induction of expression of estrogen-regulated genes,[14],showed no clear induction of any of the genes
CC/C(=C(\c1ccccc1)c1ccc(OCCN(C)C)cc1)c1ccccc1 [tamoxifen],induction of expression of estrogen-regulated genes,[14],showed no clear induction of any of the genes
